The assay deals with T1, 3-phosphoinositide-dependent protein kinase 1 (Homo sapiens, UniProt O15530).
T1 sequence (O15530 whole entry): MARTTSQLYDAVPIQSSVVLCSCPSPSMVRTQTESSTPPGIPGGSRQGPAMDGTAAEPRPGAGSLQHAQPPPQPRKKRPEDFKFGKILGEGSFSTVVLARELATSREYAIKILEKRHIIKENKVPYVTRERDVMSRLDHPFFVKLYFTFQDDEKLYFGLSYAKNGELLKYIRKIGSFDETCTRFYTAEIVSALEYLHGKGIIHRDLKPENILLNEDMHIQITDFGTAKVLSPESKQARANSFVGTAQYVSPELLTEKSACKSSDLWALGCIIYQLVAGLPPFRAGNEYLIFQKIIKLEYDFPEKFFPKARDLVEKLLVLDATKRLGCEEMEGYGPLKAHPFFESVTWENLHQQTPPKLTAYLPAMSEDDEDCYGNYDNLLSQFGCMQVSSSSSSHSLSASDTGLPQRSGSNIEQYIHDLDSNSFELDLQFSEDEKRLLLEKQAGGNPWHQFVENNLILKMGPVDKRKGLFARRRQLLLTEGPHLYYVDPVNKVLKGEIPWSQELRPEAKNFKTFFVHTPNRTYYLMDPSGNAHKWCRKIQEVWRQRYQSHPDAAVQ
Kind of assay: Inhibition Assay: The compound inhibits the target protein in the enzymatic PDK1 inhibition assay.

The structures appear in SMILES notation.

By IC50 is commonly meant the concentration that inhibits the measured activity by half. The molecule `Cn1cc(-c2cnc3[nH]cc(-c4cc(N(CCC#N)c5ccccc5)nc(N)n4)c3c2)cn1` came in with a half-maximal inhibitory concentration (IC50) of 7.9 nM.

Molecule `CN(c1cccc(F)c1)c1cc(-c2c[nH]c3ncc(-c4cnn(C)c4)cc23)ncn1` gave an IC50 of 190 nM.

Source of the values: ChEMBL document CHEMBL3638434, “1H-pyrrolo[2,3 b]-pyridine derivatives” (2014).
